Experimental findings from patent US20050215531A1, “Use of edg receptor binding agents in cancer” (priority 2002, published 2005) are described below.

Series [1] has as its system S1P- or VEGF-induced growth of vascularized tissue around the chamber. The series can be described thus: Antiangiogenic activity, subcutaneous porous chamber (S1P or VEGF) in mice. Format: in vivo. The note with it: once a day for 4 days; Compound A orally 0.3, 3, 30 or 50 mg/kg; Compound C enantiomers i.v. 2.5 mg/kg. Here is the method: Porous chambers containing (I) sphingosine-1-phosphate (5 μM/chamber) or (ii) human VEGF (1 μg/chamber) in 0.5 ml of 0.8% w/v agar (containing heparin, 20 U/ml) are implanted subcutaneously in the flank of mice. S1P or VEGF induces the growth of vascularized tissue around the chamber. This response is dose-dependent and can be quantified by measuring the weight and blood content of the tissue. Mice are treated once a day (i) orally with Compound A (0.3, 3, 30 or 50 mg/kg) or (ii) intravenously with the R enantiomer of Compound C (2.5 mg/kg) or (iii) intravenously with the S enantiomer of Compound C (2.5 mg/kg) or (iv) orally or intravenously with vehicle (5% glucose, 10 ml/kg), starting 4-6 hours before implantation of the chambers and continuing for 4 days. The animals are sacrificed for measurement of the vascularized tissues 24 h after the last dose. The weight and blood content of the vascularized tissues around the chamber is determined. Animals treated with Compound A or with the R or S enantiomer of Compound C show reduced weight and/or blood content of the vascularized tissues compared to animals treated with vehicle alone.

The subject of a further series is HUVEC. The series can be described thus: In vitro angiogenesis (tube formation) assay on Matrigel. The format is cell-based, human. Here is the method: (§1) Human umbilical vein endothelial cells (HUVEC) are cultured at 37° C. and 5% CO2 in medium M199 supplemented with 20% SCS (HyClone, Logan, Utah), 1 U/ml heparin, 50 μg/ml ECGS, 2 mM glutamine, 100 U/ml penicillin and 0.1 mg/ml streptomycin. Cells are used for experiments up to passage number 5. Short-starved HUVEC are obtained by starving with 1% SCS-containing M199 for 5 h. Recombinant human VEGF165 is obtained from PromoCell (Heidelberg, Germany). Phospho-specific ERK½, p3B kinase polyclonal antibodies, nonphospho ERK½ antibodies and LumiGLO chemiluminescent reagent are from New England BioLabs (Beverly, Mass.), polyclonal IKB antibodies from Santa Cruz Biotechnology (Santa Cruz, Calif.). Peroxidase-conjugated donkey anti-rabbit immunoglobulin G (IgG) and sheep anti-mouse IgG are purchased from Amersham LIFE SCIENCE (Amersham Place, England). lmmobilon-P transfer membranes are products of Millipore (Bedford, Mass.). S is obtained from Sigma Chemical Co.; S1P is from Biomol. Compound A-phosphate stock solution is prepared by the following protocol. Compound A-phosphate is dissolved in methanol tracing with concentrated HCl (0.5 mg Compound A-phosphate in 500 μl of methanol plus 2 μl of HCl). Solvent from the resulting solution is evaporated under vacuum and the residue obtained is redissolved (variant 1) in 0.1% of defatted BSA solution in sterile deionized water (500 μl) or (variant 2) in 0.5% Triton X-100 in deionized water. The resulting stock solutions (2.5 mM) are sonicated and stored at 4° C.
Morphogenesis of endothelial cells into capillary-like structures on Growth Factor Reduced Matrigel Matrix (BD Bioscience) is performed according to the manufacture procedure. Briefly, HUVEC are trypsinized, resuspended in serum-free Ml 99 medium containing soybean trypsin inhibitor (1 mg/ml, Sigma). After centrifugation cells are resuspended in serum-free medium at a density 0.5×10^5 cells/ml, and cell suspension is seeded in 96-well cell culture plates (Costar, Corning Incorporated) precoated with 50 μl of Matrigel in the absence or presence of various stimuli: VEGF at 1.5 nM, S1P at 0.1-2 μM, S at 0.5-2 μM, Compound A at 0.5-2 μM, and Compound A-phosphate at 0.1-2 μM. Eight hours later, cells on Matrigel are fixed with 3% formaldehyde in PBS and kept at 4° C. Results are quantitated from images made with a Nikon Diaphot microscope equipped with a cooled CCD camera (Kappa GmbH, Gleichen, Germany) by direct counting of branching points on two microscopic fields from each well done in duplicates.
The effect of Compound A and Compound A-phosphate on morphogenic differentiation of endothelial cells is determined using an in vitro angiogenesis assay on Matrigel. Endothelial cell morphogenesis is a complex process that requires cell-extracellular matrix interactions, followed by matrix remodelling, stimulated migration, cell-cell interactions, and perivascular proteolysis. […] This may be interpreted as a possible involvement of EDG-1 (S1P1) receptor-mediated signaling events in Compound A-phosphate-stimulated bioresponses (see e.g. FIG. 3). […] Importantly, high concentrations of S and Compound A (2-5 μM) inhibited VEGF-triggered tube formation.

The test system of another series is ERK½ MAP kinases. The series can be described thus: Western blot, activation of ERK½ MAP kinases in HUVEC. Format: cell-based, human. The note with it: endothelial cells, 5 minute to 60 minute treatment. Here is the method:
as §1
After various treatments, the cells are washed twice with cold PBS, lysed in 100 μl of Laemmli buffer, scraped and heated for 5 min at 95° C. Total cell lysates are separated by SDS-PAGE and transferred to Immobilon-P membrane. The membrane is blocked for 30 minutes with PBS containing 0.1% Tween-20 and 3% skim milk and incubated for 1 hour at RT with a primary antibody diluted in blocking buffer. The membrane obtained is washed three times for 5 minutes with PBS containing 0.1% Tween-20 and incubated with peroxidase-conjugated secondary antibody for 1 hour at RT. After a washing step, the membrane is incubated for 1 minute with ECL reagent and exposed to film as required. For reprobing with another antibody, the membrane is washed twice in PBS, stripped for 30 min at 55° C. with stripping buffer (62.5 mM Tris-HCL, pH 6.8, 2% SDS, 100 mM 2-mercaptoethanol) and washed three times for 5 minutes with PBS at RT. The membrane is stored wet wrapped in SaranWrap at 4° C. after each immunodetection.
Signal transduction via MAP idnases plays a key role in a variety of endothelial cell functions. Treatment of HUVEC with Compound A-phosphate at 0.5 μM may result in transient activation of ERK½ with a peak of phosphorylation/activation at 10 minutes and returning to baseline by 20 minutes (see e.g. FIG. 5). No activation of p38 kinase and JNK½ by Compound A-phosphate is detectable in HUVEC. […] To estimate the possible role of inflammatory/NFκB-dependent program in Compound A-phosphatestimulated bioresponses of endothelial cells, the membranes are reprobed with anti-IκB antibodies. IκB levels are not affected by Compound A-phosphate treatment.

The next series concerns tissue factor. The series is described as follows: Clotting assay, tissue factor activity on HUVEC. The format is cell-based, human. Here is the method:
as §1
Cells are seeded in 6-well plates at 80-90% confluency and grown overnight. Cells are scraped from the plates and analyzed for tissue factor activity according to the method as described in Clauss, M., J. Biol. Chem. 271,17629-17634 (1996), Mechtcheriakova, D., Blood 93,3811-3823 (1999). Briefly, after induction for 4 hours with VEGF (1.5 nM), TNF-α (100 U/ml), S (0.5-2 μM), S1P (0.5-2 μM), Compound A (0.5-2 μM), and Compound A-phosphate (0.5-2 μM), cells are washed twice and then scraped in 1 ml clotting buffer (12 mM sodium acetate, 7 mM diethylbarbitate and 130 mM sodium chloride; pH 7.4). 50 μl of resuspended cells are mixed with 50 μl of citrated plasma, and clotting times are determined after recalcfication with 50 μl of 20 mM CaCl2 solution at 37° C. TF-equivalents are determined by using a standard curve obtained from rabbit brain thromboplastin.
An important characteristic feature of both classical inflammatory stimulus TNF-α and the main angiogenic growth factor VEGF on endothellal cells is their potency to upregulate tissue factor. Compound A, Compound A-phosphate, S or S1P are tested whether they also do induce tissue factor on HUVEC. […] The data obtained together indicate that Compound A, Compound A-phosphate, S and S1P mechanistically work distinctly to anglogenic VEGF and inflammatory TNF-α.

Series [2] can be described thus: Acute toxicity p.o. in rats.
The nature of series [3]: Acute toxicity p.o. in monkeys.
Series [4] has as its system mouse breast cancer cell line JygMC(A). The series can be described thus: In vitro antitumor activity: proliferation of synchronised mouse breast cancer cells. Format: cell-based. The note with it: hydrochloride salt form, Coulter counter and SRB colorimetric assay. Here is the method:
A mouse breast cancer cell line originally isolated from mammary carcinomas is used, e.g. JygMC(A). The cell number is adjusted to 5×10^5 for plating in fresh medium before the procedure. Cells are incubated with fresh medium containing 2.5 mM of thymidine without FCS for 12 h and then washed twice with PBS, followed by addition of fresh medium with 10% FCS and additionally incubated for another 12 h. Thereafter the cells are incubated with fresh medium containing 2.5 mM of thymidine without FCS for 12 h. To release the cells from the block, the cells are washed twice with PBS and replated in fresh medium with 10% FCS. After synchronisation the cells are incubated with or without various concentrations of a compound of formula I for 3, 6, 9, 12, 18 or 24 h. The cells are harvested after treatment with 0.2% EDTA, fixed with ice-cold 70% ethanol solution, hydrolyzed with 250 μg/ml of RNaseA (type 1-A: Sigma Chem. Co.) at 37° C. for 30 mn and stained with propidium iodide at […] for 20 mn. After the incubation period, the number of cells is determined both by counting cells in a Coulter counter and by the SRB colorimetric assay. Under these conditions an S1P agonist, e.g. Compound B in hydrochloride salt form, inhibits the proliferation of the tumor cells at concentrations ranging from 10^−12 to 10^−6 M.
For orientation: Sulforhodamine B stains cellular protein and so reports cell mass.

Series [5] concerns human A375 melanoma cells. The series is described as follows: In vivo antitumor activity, A375 melanoma transplanted into BALB/c-nu/nu mice. The note with it: hydrochloride salt form, 0.5 to 5 mg/kg, 2 week treatment. The source says:
Antitumor activity is expressed as T/C% (mean increase in tumor volumes of treated animals divided by the mean increase of tumor volumes of control animals multiplied by 100).
Aliquots of cancer cells (1×10^7), e.g. human A375 melanoma cells, are transplanted into BALB/c-nu/nu mice. When the tumors have reached ca. 10×10 mm in size, the animals are assigned randomly to four subgroups and the treatment with a compound of formula I is initiated. Animals are sacrificed after 2 week treatment, at which times tumors and tissues are harvested and prepared for morphological and molecular analysis. The size of the tumors is determined with a caliper.

Molecules are shown by their SMILES.

`CCCCCCCOc1ccc(CCC(C)(N)CO)cc1` (stereo not drawn) [R enantiomer of Compound C, 2-amino-4-(4heptyloxyphenyl)-2-methyl-butanol]: in series [1], the “weight and/or blood content of the vascularized tissues compared to vehicle” value was “reduced”.
As to `CCCCCCCCc1ccc(CCC(N)(CO)CO)cc1.Cl` [Compound A, 2-amino-2-[2-(4-octylphenyl)ethyl]propane-1 ,3-diol], the “weight and/or blood content of the vascularized tissues compared to vehicle” value in series [1] is reported as “reduced”. Also, the “effect on capillary-like network formation” value in the series with HUVEC (0.5-1 μM) is “weak, in comparison to Compound A-phosphate, but consistent enhancing effect”. For the same molecule, in the series on HUVEC (0.5-1 μM, with VEGF), the “effect on VEGF-mediated remodelling” value is given as “does not attenuate”. Besides, the “effect on VEGF-triggered tube formation” value in the series with HUVEC (high concentrations, 2-5 μM) is given as “inhibited”. In addition, the MAP kinase activation result in the series on ERK½ MAP kinases is given as “Neither Compound A nor S are able to induce MAP kinase activation”. Besides, the “effect on TNF-α-induced tissue factor” value in the series with tissue factor (TNF-α 100 U/ml) was “not TNF-α-induced”. For the same molecule, the “effect on VEGF-induced tissue factor” value in the series with tissue factor (VEGF 1.5 nM) was “slightly enhance”. The tissue factor activity result in the series on tissue factor (compound alone or in combinations, 0.5-2 μM, 4 hours) is on record as “none of these compounds alone or in combinations may elevate tissue factor activity”. Further, the “acute LD60” value in series [2] and in series [3] was above 10 mg/kg in each case.
Consider `NC(CO)(CO)CCc1ccc(C(=O)CCCCc2ccccc2)cc1` [Compound B, 2-amino-2-{2-[4-(1-oxo-5-phenylpentyl)phenyl]ethyl}propane-1,3-diol], for which the “concentrations at which the proliferation of the tumor cells is inhibited” value in series [4] is given as 10^−12 to 10^−6 M. Also, in series [5], the “tumor growth vs saline control” value is on record as “slows tumor growth”.
